Paper PMC6150295, “Synthesis and Biological Evaluation of 2H-Indazole Derivatives: Towards Antimicrobial and Anti-Inflammatory Dual Agents” (Molecules : A Journal of Synthetic Chemistry and Natural …, 2017)
Where two headings read alike, the source gives them in different places.

Key:
[1] = tested on: Entamoeba histolytica strain HM1-IMSS; assay: In vitro antiprotozoal assay (trophozoite subculture method); assay type: cell-based; conditions: for IC50: Entamoeba histolytica, read-out: IC50 (µM) E. histolytica; for improvement in potency against E. histolytica relative to the analog: 17 compared with 8, 20 compared to 13, 26 compared to 21
Protocol: (§1) The in vitro antiprotozoal assays against E. histolytica, G. intestinalis, and T. vaginalis of the 2-phenyl-2H-indazole and 2,3-diphenyl-2H-indazole derivatives were carried out following the method previously described. Metronidazole (MTZ) and albendazole (ABZ) were used as reference drugs. […] Similarly, compound 7, having a phenyl at position 2, has good activity against the three protozoa, ranking third in activity for T. vaginalis and forth against G. intestinalis and E. histolytica. […] These derivatives had groups H, COOCH3, Cl, and SO2CH3 at positions 2 and 3, substituents that induced the best response in 2-phenyl-2H-indazole derivatives. In addition, carboxylic acids 20 and 25 were of interest for comparative purposes with ester derivatives.
(§2) Trichomonas vaginalis strain GT3, Giardia intestinalis isolate IMSS:0981:1, and Entamoeba histolytica strain HM1-IMSS were used. Trophozoites of G. intestinalis were maintained in a TYI-S-33 medium supplemented with 10% calf serum and bovine bile. E. histolytica and T. vaginalis trophozoites were maintained in TYI-S-33 medium supplemented with 10% bovine serum. Briefly, 5 × 10^4 trophozoites of G. intestinalis or T. vaginalis, or 6 × 10^3 trophozoites of E. histolytica were incubated for 48 h at 37 °C with different concentrations of the compound to be tested, each added as solutions in DMSO. As a negative control, parasite cultures received an equivalent amount of DMSO only, while albendazole and metronidazole were included as positive controls. At the end of the treatment period, the cells were washed and subcultured for another 48 h in a fresh medium to which no drug was added. […] Experiments were carried out in triplicate and repeated at least twice.

[2] = tested on: Giardia intestinalis isolate IMSS:0981:1; assay: as above; assay type: cell-based; conditions: for IC50: Giardia duodenalis, read-out: IC50 (µM) G. intestinalis
Protocol: as §1, §2

[3] = tested on: Trichomonas vaginalis strain GT3; assay: as above; assay type: cell-based; conditions: for IC50: Trichomonas vaginalis, read-out: IC50 (µM) T. vaginalis
Protocol: as §1, §2

[4] = tested on: Salmonella enterica serovar Typhi; assay: Disk diffusion susceptibility test; assay type: cell-based
[5] = tested on: Escherichia coli strain EDL933 (EHEC); assay: Disk diffusion susceptibility test; assay type: cell-based; conditions: for Inhibition (positive / none) E. coli 933: 5 mg per disc, 37 °C, 24 h; for zone of inhibition at 5000 µg/disc: Escherichia coli, read-out: Zone of inhibition at 5 mg per disc (mm) E. coli 933
[6] = tested on: Escherichia coli strain 042 (EAEC); assay: Disk diffusion susceptibility test; assay type: cell-based; conditions: 5 mg per disc, 37 °C, 24 h
[7] = tested on: Candida albicans; assay: Disk diffusion susceptibility test; assay type: cell-based; conditions: for Inhibition (positive / none) C. albicans: 5 mg per disc, 37 °C, 24 h
[8] = tested on: Candida glabrata; assay: Disk diffusion susceptibility test; assay type: cell-based; conditions: for Inhibition (positive / none) C. glabrata: 5 mg per disc, 37 °C, 24 h; for zone of inhibition at 5000 µg/disc: Nakaseomyces glabratus, read-out: Zone of inhibition at 5 mg per disc (mm) C. glabrata
[9] = trophozoites, 48 h with compound then 48 h subculture without drug
[10] = GT3, trophozoites, 48 h with compound then 48 h subculture without drug
[11] = 16 relative to 7, 20 compared to 13

SMILES	IC50 [1, 9]	IC50 [2, 9]	IC50 [3, 10]	melting point	Inhibition (positive / none) E. coli 933 [5]	Inhibition (positive / none) E. coli 042 [6]	Inhibition (positive / none) S. Typhi ([4]; 5 mg per disc, 37 °C, 24 h)	Inhibition (positive / none) C. albicans [7]	Inhibition (positive / none) C. glabrata [8]	other results
CCCSc1ccc2nc(NC(=O)OC)[nH]c2c1 [ABZ, albendazole, reference compound]										IC50 ([1]; 48 h): 56.5 ± 18.8 µM; IC50 ([2]; 48 h): 0.037 ± 0.003 µM; IC50 ([3]; GT3, 48 h): 1.591 ± 0.0113 µM
CC1(C)S[C@@H]2[C@H](NC(=O)[C@H](N)c3ccccc3)C(=O)N2[C@H]1C(=O)O [Ampicillin, ampicillin, reference compound]										Inhibition (positive / none) S. Typhi ([4]; positive control, ampicillin 25 µg): +
COC(=O)c1ccc(-n2cc3ccccc3n2)cc1 [Compound 10, Methyl 4-(2H-indazol-2-yl) benzoate]	0.0218 ± 0.0028 µM	0.0634 ± 0.0056 µM	0.107 ± 0.0056 µM	185.8 to 186.2 °C	-	-	-	-	-	
CS(=O)(=O)c1ccc(-n2cc3ccccc3n2)cc1 [Compound 15, 2-(4-(Methylsulfonyl)phenyl)-2H-indazole]	0.136 ± 0.0052 µM	0.09 ± 0.0234 µM	0.145 ± 0.0026 µM	200.6 to 201.5 °C	-	-	-	-	-	
Clc1ccc(-n2nc3ccccc3c2-c2ccccc2)cc1 [Compound 17, 2-(4-Chlorophenyl)-3-phenyl-2H-indazole]	0.0213 ± 0.0023 µM	0.0607 ± 0.0023 µM	0.103 ± 0.0023 µM	124.4 to 125 °C	+	-	-	-	-	improvement in potency against E. histolytica relative to the analog [1]: two-fold; zone of inhibition at 5000 µg/disc [5]: 2 mm
O=C(O)c1ccc(-n2nc3ccccc3c2-c2ccccc2)cc1 [Compound 20, 4-(3-Phenyl-2H-indazol-2-yl) benzoic acid]	0.0445 ± 0.0045 µM	0.0795 ± 0.0045 µM	0.111 ± 0.018 µM	129.2 to 130.1 °C	+	-	-	-	+	improvement in potency against E. histolytica relative to the analog [1]: two-fold; improvement in potency against G. intestinalis relative to the analog [2, 11]: two-fold; improvement in potency against T. vaginalis relative to the analog [3, 11]: three-fold; zone of inhibition at 5000 µg/disc [5]: 2 mm; zone of inhibition at 5000 µg/disc [8]: 2 mm
Clc1ccc(-c2c3ccccc3nn2-c2ccccc2)cc1 [Compound 22, 3-(4-Chlorophenyl)-2-phenyl-2H-indazole]	0.0394 µM	0.113 ± 0.007 µM	0.118 ± 0.0046 µM	141.1 to 142.8 °C	+	-	-	-	+	zone of inhibition at 5000 µg/disc [5]: 1 mm; zone of inhibition at 5000 µg/disc [8]: 2 mm
O=C(O)c1ccc(-c2c3ccccc3nn2-c2ccccc2)cc1 [Compound 25, 4-(2-Phenyl-2H-indazol-3-yl) benzoic acid]	0.0509 µM	0.121 ± 0.009 µM	0.24 ± 0.0067 µM	296.2 to 298.2 °C	+	-	-	+	-	zone of inhibition at 5000 µg/disc [5]: 2 mm; zone of inhibition at 5000 µg/disc ([7]; Candida albicans, read-out: Zone of inhibition at 5 mg per disc (mm) C. albicans): 1 mm
Cc1ncc([N+](=O)[O-])n1CCO [MTZ, Metronidazole, reference compound]	0.38 ± 0.146 µM	1.23 ± 0.125 µM	0.236 ± 0.016 µM							

Continued, in another order:

IC50 [1, 9]	IC50 [2, 9]	IC50 [3, 10]	melting point	SMILES	Inhibition (positive / none) E. coli 933 [5]	Inhibition (positive / none) E. coli 042 [6]	Inhibition (positive / none) S. Typhi ([4]; 5 mg per disc, 37 °C, 24 h)	Inhibition (positive / none) C. albicans [7]	Inhibition (positive / none) C. glabrata [8]	other results
0.0415 ± 0.0031 µM	0.0634 ± 0.0031 µM	0.107 ± 0.0031 µM	143 to 145.5 °C	Clc1ccc(-n2cc3ccccc3n2)cc1 [Compound 8, 2-(4-Chlorophenyl)-2H-indazole]						
0.154 ± 0.0158 µM	0.205 ± 0.0063 µM	0.372 ± 0.0158 µM	133.2 to 135.8 °C	COc1ccc(-n2cc3ccccc3n2)cc1 [Compound 9, 2-(4-Methoxyphenyl)-2H-indazole]						
0.0978 ± 0.0147 µM	0.218 ± 0.0088 µM	0.273 ± 0.0147 µM	148.3 to 149.7 °C	CSc1ccc(-n2cc3ccccc3n2)cc1 [Compound 11, 2-(4-(Methylthio)phenyl)-2H-indazole]						
0.0737 ± 0.0101 µM	0.119 ± 0.0067 µM	0.157 ± 0.0135 µM	179 to 181 °C	Oc1ccc(-n2cc3ccccc3n2)cc1 [Compound 12, 4-(2H-Indazol-2-yl) phenol]						
0.0965 ± 0.0059 µM	0.193 ± 0.0119 µM	0.327 ± 0.0178 µM	288.3 to 288.5 °C	O=C(O)c1ccc(-n2cc3ccccc3n2)cc1 [Compound 13, 4-(2H-Indazol-2-yl) benzoic acid]						
0.0878 ± 0.0083 µM	0.168 ± 0.011 µM	0.312 ± 0.011 µM	150.1 to 152.7 °C	C[S+]([O-])c1ccc(-n2cc3ccccc3n2)cc1 (centres unmarked) [Compound 14, 2-(4-(Methylsulfinyl)phenyl)-2H-indazole]						
			87.7 to 89 °C	CSc1ccc(-n2nc3ccccc3c2-c2ccccc2)cc1 [Compound 19, 2-(4-(Methylthio)phenyl)-3-phenyl-2H-indazole]						
			119.3 to 121.4 °C	CSc1ccc(-c2c3ccccc3nn2-c2ccccc2)cc1 [Compound 24, 3-(4-(Methylthio)phenyl)-2-phenyl-2H-indazole]						
